Measurements published in US20210255193A1, “LYSINE REACTIVE PROBES AND USES THEREOF” (The Scripps Research Institute, priority 2017, published 2021).
One block for each compound: values may come before it.

Legend:
Assay in all cases: competitive isoTOP-ABPP
Assay type in all cases: binding
[1] = molecular target: T1, RPS10 40S ribosomal protein S10 (Homo sapiens, UniProt P46783); settings: for R value (DMSO/fragment) for probe 1 labeling: P46783_K139; for isoTOP-ABPP ratio (R) at liganded lysine P46783_K139: sol, 231
T1 construct: isoTOP-ABPP experiments performed in cell lysates (in vitro); endogenous in cells; host or cells: soluble proteome of human cancer cell lines (MDA-MB-231; Ramos and Jurkat also prepared)
In short: (§1)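 Lysate + fragment (50 μM activated ester / 100 μM guanidinylating agent) or DMSO → 0.1 mM STP-alkyne, 1 h, RT → CuAAC to TEV tags (compound light, DMSO heavy) → LC-MS. R = heavy/light MS1 area; liganded lysine if R≥4.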

[2] = molecular target: T2, IFIT3 Interferon-induced protein with tetratricopeptide (Homo sapiens, UniProt O14879); settings: for isoTOP-ABPP ratio, lysine O14879_K148: 50 uM_231_sol_in vitro; for isoTOP-ABPP ratio (R) at liganded lysine O14879_K148: sol, 231
T2 construct: isoTOP-ABPP experiments performed in cell lysates (in vitro); endogenous in cells; host or cells: MDA-MB-231 soluble lysate
T2 sequence (O14879 1-490): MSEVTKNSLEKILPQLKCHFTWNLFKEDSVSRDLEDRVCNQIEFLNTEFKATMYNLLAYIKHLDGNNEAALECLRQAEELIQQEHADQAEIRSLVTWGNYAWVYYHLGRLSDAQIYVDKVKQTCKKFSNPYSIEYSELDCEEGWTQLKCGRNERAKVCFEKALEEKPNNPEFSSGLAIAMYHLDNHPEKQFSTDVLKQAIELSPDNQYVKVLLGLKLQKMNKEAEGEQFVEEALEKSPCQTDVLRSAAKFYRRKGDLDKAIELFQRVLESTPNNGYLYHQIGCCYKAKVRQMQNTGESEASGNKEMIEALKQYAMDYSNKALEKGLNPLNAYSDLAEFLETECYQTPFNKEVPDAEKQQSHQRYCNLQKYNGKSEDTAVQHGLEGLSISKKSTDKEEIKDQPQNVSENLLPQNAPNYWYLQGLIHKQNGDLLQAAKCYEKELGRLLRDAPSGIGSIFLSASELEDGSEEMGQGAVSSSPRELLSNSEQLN
In short: as §1

[3] = molecular target: T3, ERO1L ERO1-like protein alpha (Homo sapiens, UniProt Q96HE7); settings: 50 uM, in vitro
T3 construct: isoTOP-ABPP experiments performed in cell lysates (in vitro); endogenous in cells; host or cells: soluble proteome of human cancer cell lines (MDA-MB-231; Ramos and Jurkat also prepared)
T3 sequence (Q96HE7 24-468): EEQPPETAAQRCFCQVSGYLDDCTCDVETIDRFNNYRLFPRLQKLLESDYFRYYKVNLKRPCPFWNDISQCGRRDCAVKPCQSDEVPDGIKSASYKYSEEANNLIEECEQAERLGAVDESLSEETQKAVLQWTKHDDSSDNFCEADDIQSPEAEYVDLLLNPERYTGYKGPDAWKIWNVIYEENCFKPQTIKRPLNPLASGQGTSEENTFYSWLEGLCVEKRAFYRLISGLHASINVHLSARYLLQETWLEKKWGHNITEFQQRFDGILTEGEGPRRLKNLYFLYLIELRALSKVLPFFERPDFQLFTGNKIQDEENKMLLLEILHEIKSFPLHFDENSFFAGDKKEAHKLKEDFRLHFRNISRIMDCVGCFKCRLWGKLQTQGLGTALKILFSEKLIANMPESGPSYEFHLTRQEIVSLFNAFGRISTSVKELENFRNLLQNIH
In short: as §1

[4] = molecular target: T4, NUDT22 Nucleoside diphosphate-linked moiety X motif 22 (Homo sapiens, UniProt Q9BRQ3); settings: for isoTOP-ABPP ratio (R) at liganded lysine Q9BRQ3_K60: sol, 231; for isoTOP-ABPP ratio, lysine Q9BRQ3_K60: 50 uM_231_sol_in vitro
T4 construct: isoTOP-ABPP experiments performed in cell lysates (in vitro); endogenous in cells; host or cells: soluble proteome of human cancer cell lines (MDA-MB-231; Ramos and Jurkat also prepared)
T4 sequence (Q9BRQ3 1-303): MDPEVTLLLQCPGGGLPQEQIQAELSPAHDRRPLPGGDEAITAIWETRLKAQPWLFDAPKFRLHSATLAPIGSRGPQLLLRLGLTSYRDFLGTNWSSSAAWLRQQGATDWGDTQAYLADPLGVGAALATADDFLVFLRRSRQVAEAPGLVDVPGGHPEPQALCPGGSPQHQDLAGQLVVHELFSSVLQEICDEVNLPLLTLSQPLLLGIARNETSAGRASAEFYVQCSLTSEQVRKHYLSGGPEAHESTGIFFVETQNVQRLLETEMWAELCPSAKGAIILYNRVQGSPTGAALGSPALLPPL
In short: as §1

isoTOP-ABPP ratio, lysine P46783_K139 ([1]; 50 uM_231_sol_in vitro): 0.8
isoTOP-ABPP ratio, lysine O14879_K148 [2]: 0.7
SMILES: O=C(Oc1c(F)c(F)cc(F)c1F)c1cc(C(F)(F)F)cc(C(F)(F)F)c1 [fragment 48, 2,3,5,6-Tetrafluorophenyl 3,5-bis(trifluoromethyl)benzoate]

R value (DMSO/fragment) for probe 1 labeling ([1]; 50 uM, 231 sol, in vitro): 1.0
R value (DMSO/fragment) for probe 1 labeling ([3]; Q96HE7_K413, 231 sol): 0.5
R value (DMSO/fragment) for probe 1 labeling ([4]; Q9BRQ3_K60, 50 uM, 231 sol, in vitro): 0.9
R value (DMSO/fragment) for probe 1 labeling ([2]; O14879_K148, 50 uM, 231 sol, in vitro): 0.9
SMILES: O=C(CCc1cn(-c2ccccc2)nc1-c1ccccc1)Oc1c(F)c(F)c(F)c(F)c1F [fragment 19, Pentafluorophenyl 3-(1,3-diphenyl-1H-pyrazol-4-yl)propanoate]

SMILES: O=C(Oc1ccc([N+](=O)[O-])cc1[N+](=O)[O-])C(c1ccccc1)(c1ccccc1)c1ccccc1 [fragment 42, 2,4-Dinitrophenyl 2,2,2-triphenylacetate]
isoTOP-ABPP ratio (R) at liganded lysine P46783_K139 ([1]; 50 uM, in vitro): 1.0
isoTOP-ABPP ratio (R) at liganded lysine Q9BRQ3_K60 ([4]; 50 uM, in vitro): 0.8
isoTOP-ABPP ratio (R) at liganded lysine O14879_K148 ([2]; 50 uM, in vitro): 0.8

SMILES: CC(C)(C)OC(=O)NCCCC(=O)Oc1ccc([N+](=O)[O-])cc1[N+](=O)[O-] [fragment 41, 2,4-Dinitrophenyl 4-((tert-butoxycarbonyl)amino)butanoate]
isoTOP-ABPP ratio (R) at liganded lysine Q96HE7_K413 ([3]; sol, 231): 1.7
isoTOP-ABPP ratio (R) at liganded lysine Q9BRQ3_K60 ([4]; 50 uM, in vitro): 20.0

isoTOP-ABPP ratio, lysine Q9BRQ3_K60 [4]: 1.1
SMILES: O=C(Oc1c(F)c(F)c(C(F)(F)F)c(F)c1F)c1cc(C(F)(F)F)cc(C(F)(F)F)c1 [fragment 47, 2,3,5,6-Tetrafluoro-4-(trifluoromethyl)phenyl 3,5-bis(trifluoromethyl)benzoate]

isoTOP-ABPP reactivity ratio at lysine P46783_K139 ([1]; 50 uM, 231 sol, in vitro): 1.0
isoTOP-ABPP reactivity ratio at lysine Q9BRQ3_K60 ([4]; 50 uM, 231 sol, in vitro): 0.8
isoTOP-ABPP reactivity ratio at lysine O14879_K148 ([2]; 50 uM, 231 sol, in vitro): 1.4
SMILES: O=C(CCc1coc2cc(F)ccc2c1=O)Oc1c(F)c(F)c(F)c(F)c1F [fragment 26, Pentafluorophenyl 3-(7-fluoro-4-oxo-4H-chromen-3-yl)propanoate]

isoTOP-ABPP reactivity ratio at lysine Q9BRQ3_K60 ([4]; 50 uM, 231 sol, in vitro): 1.2
isoTOP-ABPP reactivity ratio at lysine O14879_K148 ([2]; 50 uM, 231 sol, in vitro): 0.9
SMILES: O=C(CN1C(=O)c2ccccc2C1=O)Oc1c(F)c(F)c(F)c(F)c1F [fragment 27, Pentafluorophenyl 2-(1,3-dioxoisoindolin-2-yl)acetate]

SMILES: Cn1cc(CC(=O)Oc2ccc([N+](=O)[O-])cc2[N+](=O)[O-])c2ccccc21 [fragment 32, 2,4-Dinitrophenyl 2-(1-methyl-1H-indol-3-yl)acetate]
isoTOP-ABPP reactivity ratio at lysine Q96HE7_K413 ([3]; 231 sol): 20.0
isoTOP-ABPP reactivity ratio at lysine Q9BRQ3_K60 ([4]; 50 uM, 231 sol, in vitro): 20.0

SMILES: O=C(CCc1ccc2c(c1)OCO2)Oc1ccc([N+](=O)[O-])cc1[N+](=O)[O-] [fragment 45, 2,4-Dinitrophenyl 3-(benzo[d][1,3]dioxol-5-yl)propanoate]
isoTOP-ABPP ratio, lysine Q9BRQ3_K60 [4]: 1.7
isoTOP-ABPP ratio, lysine O14879_K148 [2]: 2.7

SMILES: O=C(CCc1coc2cc(F)ccc2c1=O)Oc1ccc([N+](=O)[O-])cc1[N+](=O)[O-] [fragment 36, 2,4-Dinitrophenyl 3-(7-fluoro-4-oxo-4H-chromen-3-yl)propanoate]
isoTOP-ABPP ratio (R) at liganded lysine P46783_K139 ([1]; 50 uM, in vitro): 0.7
isoTOP-ABPP ratio (R) at liganded lysine O14879_K148 ([2]; 50 uM, in vitro): 3.4

isoTOP-ABPP ratio, lysine P46783_K139 ([1]; 100 uM_231_sol_in vitro): 20.0
SMILES: COC(=O)NC(=NC(=O)OCC1c2ccccc2-c2ccccc21)n1cccn1 [fragment 49, N-Methoxycarbonyl-N′-9-fluorenylmethoxycarbonyl-pyrazole-1-carboxamidine]

SMILES: O=C(CC12CC3CC(CC(C3)C1)C2)Oc1ccc([N+](=O)[O-])cc1[N+](=O)[O-] [fragment 38, 2,4-Dinitrophenyl 2-(adamantan-1-yl)acetate]
isoTOP-ABPP ratio (R) at liganded lysine P46783_K139 ([1]; 50 uM, in vitro): 1.0

R value (DMSO/fragment) for probe 1 labeling ([1]; 50 uM, 231 sol, in vitro): 0.9
SMILES: Cn1cc(CC(=O)Oc2c(F)c(F)c(F)c(F)c2F)c2ccccc21 [fragment 22, Pentafluorophenyl 2-(1-methyl-1H-indol-3-yl)acetate]
